Measurements reported in patent publication US6638928B1, “Treatment of irritable bowel syndrome and nonulcer dyspepsia with substituted 2,3-benzodiazepines” (Vela Pharmaceuticals, Inc., priority 2002, dated 2003).

What was measured:
[1] = system: colonic propulsive motility; test: Glass bead test of colonic propulsive motility in mice; format: in vivo, mouse; conditions: 32 mg/kg IP; for Expulsion Time Mean ± SEM: 3 mm glass bead inserted 30 minutes after dosing, cut-off time 30 minutes, 10 per group; for Expulsion Time Mean ± SEM / inhibition at 32 mg/kg: female Swiss Webster mice; for inhibition at 32 mg/kg: Mus musculus, inhibition of bead expulsion vs vehicle; for inhibition of colonic propulsion (in words): summary of Table 1 data, mice
Text: This model is predictive of agents that may be used to treat the alterations in propulsion of intestinal contents that occur in individuals diagnosed with IBS. The model is very sensitive to test compounds producing inhibitory effects on propulsive motor activity, but is not sensitive to test articles increasing colonic propulsive motility. The model provides a direct measure of colonic propulsion. Thus, a test compound that slows the rate at which a glass bead is expelled, is predicted to have utility in the treatment of IBS,
This test is also used to evaluate test articles with potential to produce constipation, antidiarrheal activity, or have selective visceral anti-nociceptive activity in addition to being used as an animal model for irritable bowel syndrome.
For the present example, seventy test animals (female, 6 week old Swiss Webster mice, 18-30 g) were divided into 7 groups of 10 animals each for administration of six test compounds and vehicle alone as a control.
Each animal was dosed (IP) with either a compound of formula I, one of two related 2,3-benzodiazepines or vehicle alone. Thirty minutes after dosing, a 3 mm glass bead was inserted through the anus to a depth of 2 cm into the distal colon using a glass rod. […] Any test animal that had not expelled the bead within a cut-off time of 30 minutes was sacrificed and the position of the bead in the lumen of the colon was verified.
Such observations included gross evaluation of skin and fur, eyes and mucous membranes, respiratory, circulatory, autonomic and central nervous system, somatomotor activity and behavioral patterns. Particular attention was directed to observation of tremors, convulsions, salivation, diarrhea, sleep and coma. No signs of gross toxicity were observed. Mean and standard error of the mean were calculated for the expulsion times for each group.

central BZ receptors = conditions: cited from earlier work
peripheral BZ receptors = peripheral BZ receptors (Homo sapiens, UniProt P30536); conditions: cited from earlier work
peripheral BZ receptors, sequence (P30536 whole entry): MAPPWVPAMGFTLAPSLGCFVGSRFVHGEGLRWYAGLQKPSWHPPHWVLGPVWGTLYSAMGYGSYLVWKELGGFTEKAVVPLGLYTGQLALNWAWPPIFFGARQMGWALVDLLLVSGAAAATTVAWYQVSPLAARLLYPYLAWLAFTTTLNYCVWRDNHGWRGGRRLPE

aggression in mice = conditions: cited from earlier work
muricide in rats = conditions: cited from earlier work
[2] = system: anti-noradrenergic effects; conditions: cited from earlier work
narcosis in mice = conditions: cited from earlier work

With `CCC1C(C)=NN=C(c2ccc(OC)c(OC)c2)c2cc(O)c(OC)cc21` (racemic) [Compound 2, 1-(3,4-dimethoxyphenyl)-4-methyl-5-ethyl-7-methoxy-8-hydroxy-5H-2,3-benzodiazepine] the “Expulsion Time Mean ± SEM” value [1] was 17.2 ± 3.5 and the inhibition at 32 mg/kg [1] was 23%.
With `CCC1C(C)=NN=C(c2ccc(OC)c(O)c2)c2cc(OC)c(OC)cc21` (racemic) [Compound 4, 1-(3-hydroxy-4-methoxyphenyl)-4-methyl-5-ethyl-7,8-dimethoxy-5H-2,3-benzodiazepine] the “Expulsion Time Mean ± SEM” value [1] was 20.3 ± 3.5, the inhibition at 32 mg/kg [1] was 42% and the “inhibition of colonic propulsion (in words)” value [1] was “substantial inhibition of colonic propulsion”.
In the case of `CCC1C(C)=NN=C(c2ccc(OC)c(OC)c2)c2cc(OC)c(OC)cc21` (racemic) [tofisopam, 1-(3,4-dimethoxyphenyl)-4-methyl-5-ethyl-7,8-dimethoxy-5H-2,3-benzodiazepine], the “interaction with central BZ receptors” value (central BZ receptors) is listed as “does not interact” and the “binding to peripheral BZ receptors” value (peripheral BZ receptors) is listed as “binds only weakly”.
In the case of `CCC1C(C)=NN=C(c2ccc(OC)c(OC)c2)c2cc(OC)c(O)cc21` (centres unmarked) [Compound 1, 1-(3,4-dimethoxyphenyl)-4-methyl-5-ethyl-7-hydroxy-8-methoxy-5H-2,3-benzodiazepine], the “Expulsion Time Mean ± SEM” value [1] is given as 6.9 ± 3.7, the inhibition at 32 mg/kg [1] is given as 22% and the inhibition of aggression (aggression in mice) is given as 0%. For the same compound, the inhibition of muricide (muricide in rats) was 20% and the anti-noradrenergic effects [2] was “no effect”.
For `CCC1C(C)=NN=C(c2ccc(O)c(OC)c2)c2cc(OC)c(OC)cc21` (centres unmarked) [Compound 3, 1-(3-methoxy-4-hydroxyphenyl)-4-methyl-5-ethyl-7,8-dimethoxy-5H-2,3-benzodiazepine], the “Expulsion Time Mean ± SEM” value [1] was 20.0 ± 3.1, the inhibition at 32 mg/kg [1] was 40% and the “inhibition of colonic propulsion (in words)” value [1] was “substantial inhibition of colonic propulsion”. For the same compound, the inhibition of aggression (aggression in mice) was 0%, the inhibition of muricide (muricide in rats) was 0% and the anti-noradrenergic effects [2] was “measurable activity”. For the same compound, the narcosis-potentiating activity (narcosis in mice) was “narcosis-potentiating activity”.
For `CCC1C(C)=NN=C(c2ccc(O)c(OC)c2)c2cc(OC)c(O)cc21` (centres unmarked) [Compound 5, 1-(3-methoxy-4-hydroxyphenyl)-4-methyl-5-ethyl-7-hydroxy-8-methoxy-5H-2,3-benzodiazepine, reference compound], the “Expulsion Time Mean ± SEM” value [1] is listed as 12.0 ± 3.2, the inhibition at 32 mg/kg [1] is listed as 0% and the inhibition of aggression (aggression in mice) is listed as 28.6%. The inhibition of muricide (muricide in rats) was 20% and the anti-noradrenergic effects [2] was “measurable activity”.
In the case of `CCC1C(C)=NN=C(c2ccc(OC)c(O)c2)c2cc(OC)c(O)cc21` (centres unmarked) [Compound 6, 1-(3-hydroxy-4-methoxyphenyl)-4-methyl-5-ethyl-7-hydroxy-8-methoxy-5H-2,3-benzodiazepine, reference compound], the “Expulsion Time Mean ± SEM” value [1] was 10.7 ± 3.4 and the inhibition at 32 mg/kg [1] was 0%.
